Where a name gives a salt, the structure may show the parent alone. Read-outs that look alike come from different tables or passages of the source.
Tested on: strain YT
Test: inhibition of nitrification inhibitors on nitrification activity and growth
Format: cell-based, Mycobacterium sp.
Details: for inhibition at 5000 µM: Mycobacterium; for effect on growth of strain YT: pure culture with two nitrogen sources; for effect on nitrification activity of strain YT: pure culture; for inhibition rate on nitrification activity: over the 35 days of culture
Protocol: The nitrogen contents of the two nitrogen sources were equal in a modified Stephenson medium with (NH4)2SO4 as a nitrogen source (NH4)2SO4 content was 2.0g/L) and a modified Stephenson medium with L-arginine hydrochloride (C6H14N4O2•HCl) as a nitrogen source (C6H14N4O2•HCl content was 1.6 g/L).
When sodium pyruvate was added as a carbon source in the design of a culture medium, 1.0M sodium pyruvate solution (the concentration was calculated in terms of pyruvic acid) was prepared firstly, the pH was adjusted to the range of 7.0-7.2, and the solution was sterilized separately for later use. Before use, 1ml of 1.0M sodium pyruvate solution was added to about 100ml of modified Stevenson culture medium with (NH4)2SO4 as a nitrogen source or L-arginine hydrochloride (C6H14N4O2•HCl) as a nitrogen source, and the pyruvic acid concentration of the culture system was designed to be 0.01M.
Four kinds of nitrification inhibitors 4-amino-1,2,4-triazole (ATC), dicyandiamide (DCD, C2H4N4), aminoguanidine hydrochloride (CH6N4•HCl), and guanylthiourea (C2H6N4S) were selected. The four nitrification inhibitors were prepared with a concentration of 500mM, respectively, after the solutions were filtered and sterilized, 1ml of the four nitrification inhibitors with a concentration of 500mM was added into the two medium with different nitrogen sources, such that the corresponding concentration of each of the nitrification inhibitors in the systems was 5 mM.
Two mediums with different nitrogen sources were respectively subjected to 5 treatments, namely without addition of an inhibitor, adding ATC, adding DCD, adding aminoguanidine hydrochloride, and adding guanylthiourea as shown in the table below; the YT system without addition of an inhibitor and the system without inoculation of strain YT and only addition of an inhibitor were respectively used as a control group; 1ml of PBS-YT bacterial liquid was inoculated, and 1ml of sterile water was used as a substitute when the inoculation of a bacterial strain was not performed. The total volume of each culture system was equal, it was about 100 ml.
1.5 Culture conditions: the culture was performed in a shaking table with a rotational speed of 180rpm at 28°C.
1.6 Measurement and calculation of indicator: the growth OD600 and pH value of thallus in the culture solution were measured every week, the contents of NH4^+-N, NO2^--N and NOx^--N were measured, the inhibition effect of the nitric oxide synthase (nitrification) activity of different culture systems were calculated and compared.
Nitric oxide synthase (nitrification) inhibition rate (%) = (NO2^--NYT concentration - NO2^--Nculture system added with an inhibitor concentration) ×100/ NO2^--NYT concentration

[1] = strain YT, L-arginine hydrochloride as nitrogen source, inhibitor 5 mM, 7 days (Table 13c)
[2] = strain YT, L-arginine hydrochloride as nitrogen source, inhibitor 5 mM, 14 days (Table 13c)
[3] = strain YT, L-arginine hydrochloride as nitrogen source, inhibitor 5 mM, 20 days
[4] = strain YT, L-arginine hydrochloride as nitrogen source, inhibitor 5 mM, 31 days
[5] = strain YT, ammonium sulfate as nitrogen source, inhibitor 5 mM, 7 days (Table 13c)
[6] = strain YT, ammonium sulfate as nitrogen source, inhibitor 5 mM, 14 days (Table 13c)
[7] = strain YT, ammonium sulfate as nitrogen source, inhibitor 5 mM, 20 days
[8] = strain YT, ammonium sulfate as nitrogen source, inhibitor 5 mM, 31 days
[9] = 504 h, strain YT, Ammonium sulfate, inhibitor 5 mM, Culture 21 days, read-out: Nitric oxide synthase (nitrification) activity inhibition rate (%)
[10] = 504 h, strain YT, L-arginine hydrochloride, inhibitor 5 mM, Culture 21 days, read-out: Nitric oxide synthase (nitrification) activity inhibition rate (%)
[11] = 672 h, strain YT, Ammonium sulfate, inhibitor 5 mM, Culture 28 days, read-out: Nitric oxide synthase (nitrification) activity inhibition rate (%)
[12] = 672 h, strain YT, L-arginine hydrochloride, inhibitor 5 mM, Culture 28 days, read-out: Nitric oxide synthase (nitrification) activity inhibition rate (%)
[13] = strain YT, Ammonium sulfate, inhibitor 5 mM, Culture 7 days (Table 13d), read-out: Nitric oxide synthase (nitrification) activity inhibition rate (%)
[14] = strain YT, Ammonium sulfate, inhibitor 5 mM, Culture 14 days (Table 13d), read-out: Nitric oxide synthase (nitrification) activity inhibition rate (%)
[15] = strain YT, Ammonium sulfate, inhibitor 5 mM, Culture 35 days, read-out: Nitric oxide synthase (nitrification) activity inhibition rate (%)
[16] = strain YT, L-arginine hydrochloride, inhibitor 5 mM, Culture 14 days (Table 13d), read-out: Nitric oxide synthase (nitrification) activity inhibition rate (%)
[17] = strain YT, L-arginine hydrochloride, inhibitor 5 mM, Culture 35 days, read-out: Nitric oxide synthase (nitrification) activity inhibition rate (%)
[18] = strain YT, L-arginine hydrochloride as nitrogen source, inhibitor 5 mM, 7 days
[19] = strain YT, L-arginine hydrochloride as nitrogen source, inhibitor 5 mM, 14 days
[20] = strain YT, L-arginine hydrochloride as nitrogen source, inhibitor 5 mM, 21 days
[21] = strain YT, L-arginine hydrochloride as nitrogen source, inhibitor 5 mM, 28 days
[22] = strain YT, L-arginine hydrochloride as nitrogen source, inhibitor 5 mM, 35 days
[23] = strain YT, ammonium sulfate as nitrogen source, inhibitor 5 mM, 7 days
[24] = strain YT, ammonium sulfate as nitrogen source, inhibitor 5 mM, 14 days
[25] = strain YT, ammonium sulfate as nitrogen source, inhibitor 5 mM, 21 days
[26] = strain YT, ammonium sulfate as nitrogen source, inhibitor 5 mM, 28 days
[27] = strain YT, ammonium sulfate as nitrogen source, inhibitor 5 mM, 35 days

SMILES: Nn1cnnc1 [ATC, 4-amino-1,2,4-triazole]
- inhibition at 5000 µM (168 h, read-out: Nitric oxide synthase (nitrification) activity inhibition rate (%), strain YT, Ammonium sulfate, inhibitor 5 mM, Culture 7 days (Table 13e)): 100%
- inhibition at 5000 µM (168 h, strain YT, L-arginine hydrochloride, inhibitor 5 mM, Culture 7 days (Table 13e), read-out: Nitric oxide synthase (nitrification) activity inhibition rate (%)): 100%
- inhibition at 5000 µM (336 h, read-out: Nitric oxide synthase (nitrification) activity inhibition rate (%), strain YT, Ammonium sulfate, inhibitor 5 mM, Culture 14 days (Table 13e)): 80%
- inhibition at 5000 µM (336 h, strain YT, L-arginine hydrochloride, inhibitor 5 mM, Culture 14 days (Table 13e), read-out: Nitric oxide synthase (nitrification) activity inhibition rate (%)): 98.6%
- inhibition at 5000 µM (480 h, read-out: Nitric oxide synthase (nitrification) activity inhibition rate (%), strain YT, Ammonium sulfate, inhibitor 5 mM, Culture 20 days): 89.4%
- inhibition at 5000 µM (480 h, strain YT, L-arginine hydrochloride, inhibitor 5 mM, Culture 20 days, read-out: Nitric oxide synthase (nitrification) activity inhibition rate (%)): 99.8%
- inhibition at 5000 µM (read-out: Nitric oxide synthase (nitrification) activity inhibition rate (%), strain YT, Ammonium sulfate, inhibitor 5 mM, Culture 31 days): 25.4%
- inhibition at 5000 µM (strain YT, L-arginine hydrochloride, inhibitor 5 mM, Culture 31 days, read-out: Nitric oxide synthase (nitrification) activity inhibition rate (%)): 99.8%
- effect on growth of strain YT (inhibitor 5 mM): did not inhibit the growth
- effect on nitrification activity of strain YT (inhibitor 5 mM): always exhibited the inhibiting effect
- NH4^+-N [1]: 15
- NO2^--N [1]: 0
- OD600 [1]: 0.403
- NH4^+-N [2]: 89
- NO2^--N [2]: 0.5
- OD600 [2]: 0.394
- NH4^+-N [3]: 130
- NO2^--N [3]: 0.37
- OD600 [3]: 0.329
- NH4^+-N [4]: 111
- NO2^--N [4]: 0.33
- OD600 [4]: 0.252
- NH4^+-N [5]: 419
- NO2^--N [5]: 0
- OD600 [5]: 0.214
- NH4^+-N [6]: 410
- NO2^--N [6]: 0.50
- OD600 [6]: 0.127
- NH4^+-N [7]: 366
- NO2^--N [7]: 0.5
- OD600 [7]: 0.133
- NH4^+-N [8]: 382
- NO2^--N [8]: 1.17
- OD600 [8]: 0.146

SMILES: N=C(N)NC(N)=S [Amidinothiourea, guanylthiourea]
- inhibition at 5000 µM [9]: 59.8%
- inhibition at 5000 µM [10]: 72.7%
- inhibition at 5000 µM [11]: 33.5%
- inhibition at 5000 µM [12]: 77.4%
- inhibition at 5000 µM [13]: 95.6%
- inhibition at 5000 µM [14]: 94.8%
- inhibition at 5000 µM [15]: 11%
- inhibition at 5000 µM [16]: 98.3%
- inhibition at 5000 µM [17]: 72%
- effect on growth of strain YT (inhibitor 5 mM): can obviously inhibit the growth
- effect on nitrification activity of strain YT (inhibitor 5 mM): also exhibited inhibitory effect
- Nitric oxide synthase (nitrification) activity inhibition rate (%) (strain YT, Ammonium sulfate, inhibitor 5 mM, Culture 35 days): 11.07%
- NH4^+-N [18]: 8.13 mg/L
- NO2^--N [18]: 0 mg/L
- NH4^+-N [19]: 175.90 mg/L
- NO2^--N [19]: 1.72 mg/L
- NH4^+-N [20]: 154.73 mg/L
- NO2^--N [20]: 31.10 mg/L
- NH4^+-N [21]: 138.43 mg/L
- NO2^--N [21]: 25.70 mg/L
- NH4^+-N [22]: 165.02 mg/L
- NO2^--N [22]: 32.26 mg/L
- Nitric oxide synthase (nitrification) activity inhibition rate (%) (strain YT, L-arginine hydrochloride, inhibitor 5 mM, Culture 35 days): 71.62%
- NH4^+-N [23]: 395.07 mg/L
- NO2^--N [23]: 0.02 mg/L
- NH4^+-N [24]: 418.86 mg/L
- NO2^--N [24]: 0.13 mg/L
- NH4^+-N [25]: 407.33 mg/L
- NO2^--N [25]: 1.64 mg/L
- NH4^+-N [26]: 419.92 mg/L
- NO2^--N [26]: 4.57 mg/L
- NH4^+-N [27]: 422.98 mg/L
- NO2^--N [27]: 6.12 mg/L
- inhibition rate on nitric oxide synthase (nitrification) activities (strain YT, two nitrogen sources, before 14 days of culture): ≥ 95%

SMILES: N=C(N)NN [Aminoguanidine hydrochloride, aminoguanidine hydrochloride]
- inhibition at 5000 µM [9]: 99.4%
- inhibition at 5000 µM [10]: 99.8%
- inhibition at 5000 µM [11]: 97.2%
- inhibition at 5000 µM [12]: 99.5%
- inhibition at 5000 µM [13]: 99.2%
- inhibition at 5000 µM [14]: 99.7%
- inhibition at 5000 µM [15]: 98%
- inhibition at 5000 µM [16]: 99.8%
- inhibition at 5000 µM [17]: 99.1%
- effect on growth of strain YT (inhibitor 5 mM): can inhibit the growth
- effect on nitrification activity of strain YT (inhibitor 5 mM): had an inhibitory effect
- NH4^+-N [18]: 12.86 mg/L
- NO2^--N [18]: 0 mg/L
- NH4^+-N [19]: 38.07 mg/L
- NO2^--N [19]: 0.24 mg/L
- NH4^+-N [20]: 100.12 mg/L
- NO2^--N [20]: 0.28 mg/L
- NH4^+-N [21]: 145.55 mg/L
- NO2^--N [21]: 0.58 mg/L
- NH4^+-N [22]: 58.70 mg/L
- NO2^--N [22]: 1.00 mg/L
- inhibition rate on nitrification activity (strain YT, L-arginine hydrochloride as nitrogen source): ≥ 99%
- NH4^+-N [23]: 418.92 mg/L
- NO2^--N [23]: 0 mg/L
- NH4^+-N [24]: 419.06 mg/L
- NO2^--N [24]: 0.01 mg/L
- NH4^+-N [25]: 438.98 mg/L
- NO2^--N [25]: 0.03 mg/L
- NH4^+-N [26]: 448.65 mg/L
- NO2^--N [26]: 0.19 mg/L
- NH4^+-N [27]: 468.07 mg/L
- NO2^--N [27]: 0.14 mg/L
- inhibition rate on nitrification activity (strain YT, ammonium sulfate as nitrogen source): more than 97%

From patent EP4578939A1, “MYC[…]. BASED ON VARIOUS CARBON-NITROGEN METABOLIC […], METHOD FOR ISOLATING SAME, AND USE THEREOF” (Peng, Guanghao, priority 2022, dated 2024)
